Experimental data from US5990158A, “Carboxylic acid derivatives, method of manufacturing the same and therapeutic agents containing these compounds” (Kotobuki Seiyaku Co., Ltd., priority 1996, dated 1999).

What was measured:
MMP-2 (gelatinase A) = target: T1, MMP-2 (gelatinase A) (Homo sapiens, UniProt P08253); assay: MMP-2 (gelatinase A) inhibitory activity, FITC-labeled type IV collagen degradation; assay type: biochemical; conditions: 50% inhibition of collagen type IV degradation; activated pro MMP-2 from transfected COS-1 cells; 42° C., 4 h
T1 construct: made in house; host or cells: COS-1 cells transfected with human pro-MMP-2 cDNA (secreted into culture medium)
T1 sequence (P08253 110-660): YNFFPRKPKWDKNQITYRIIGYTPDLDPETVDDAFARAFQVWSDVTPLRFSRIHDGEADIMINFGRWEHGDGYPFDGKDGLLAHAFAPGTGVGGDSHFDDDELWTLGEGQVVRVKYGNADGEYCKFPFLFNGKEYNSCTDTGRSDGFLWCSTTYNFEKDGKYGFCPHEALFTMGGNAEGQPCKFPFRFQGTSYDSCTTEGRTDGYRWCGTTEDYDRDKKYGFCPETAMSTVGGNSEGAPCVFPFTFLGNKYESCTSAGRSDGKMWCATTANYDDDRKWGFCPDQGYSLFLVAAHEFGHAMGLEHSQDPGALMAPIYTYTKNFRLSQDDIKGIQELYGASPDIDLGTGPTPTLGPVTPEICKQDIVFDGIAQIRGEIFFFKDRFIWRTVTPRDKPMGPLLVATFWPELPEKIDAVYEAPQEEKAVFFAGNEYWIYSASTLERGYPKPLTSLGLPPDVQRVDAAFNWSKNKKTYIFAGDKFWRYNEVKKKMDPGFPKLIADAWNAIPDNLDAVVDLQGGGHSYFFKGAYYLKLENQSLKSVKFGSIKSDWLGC
Experimental: (§1) Experiment 2: MMP-2 (gelatinase A) and MMP-9 (gelatinase B) inhibitory activities.
(§2) Pro MMP-2 was obtained from culture medium separated from human pro-MMP-2 cDNA tranfected COS-1 cells. It was activated by 1 mM (p-aminophenyl)mercury acetic acid, and MMP-9, derived human fibrosarcome,was purchased from Yagai Co. Ltd. Inhibition of both enzyme activities were estimated by enzyme assay using type IV collagenase activity assay kit (Yagai Co. Ltd., Biswaz, C. et al., J. Cell.Biochem., 28, 39 (1984)). MMP-2 or MMP-9 (0.01 U/ml), test compound (several concentrations), and FITC-labeled type IV collagen (derived bovine placenta, 25 μg) were incubated in 100 μl of 0.05M Tris - HCl buffer (pH 7.5) containing 200 mM NaCl and 5 mM CaCl2 at 42° C. for 4 h. Inhibitory activity of compound was evaluated by same as that of MMP-1 assay. Unchanged type IV collagen was precipitated by centrifugation, and the degradation percent of substrate was calculated by comparison with a fluorescence intensity of heat denatured substrate as 100%. Inhibition of enzyme activity was expressed as an IC50 value which was the concentration of test compound necessary to produce 50% inhibition of collagen type IV degradation by enzyme.

MMP-9 (gelatinase B) = target: T2, MMP-9 (gelatinase B) (Homo sapiens, UniProt P14780); assay: MMP-9 (gelatinase B) inhibitory activity, FITC-labeled type IV collagen degradation; assay type: biochemical; conditions: 50% inhibition of collagen type IV degradation; MMP-9 derived from human fibrosarcoma; 42° C., 4 h
T2 construct: purchased Yagai Co. Ltd; host or cells: human fibrosarcoma
Experimental: as §1, §2

T2 sequence (P14780 94-707): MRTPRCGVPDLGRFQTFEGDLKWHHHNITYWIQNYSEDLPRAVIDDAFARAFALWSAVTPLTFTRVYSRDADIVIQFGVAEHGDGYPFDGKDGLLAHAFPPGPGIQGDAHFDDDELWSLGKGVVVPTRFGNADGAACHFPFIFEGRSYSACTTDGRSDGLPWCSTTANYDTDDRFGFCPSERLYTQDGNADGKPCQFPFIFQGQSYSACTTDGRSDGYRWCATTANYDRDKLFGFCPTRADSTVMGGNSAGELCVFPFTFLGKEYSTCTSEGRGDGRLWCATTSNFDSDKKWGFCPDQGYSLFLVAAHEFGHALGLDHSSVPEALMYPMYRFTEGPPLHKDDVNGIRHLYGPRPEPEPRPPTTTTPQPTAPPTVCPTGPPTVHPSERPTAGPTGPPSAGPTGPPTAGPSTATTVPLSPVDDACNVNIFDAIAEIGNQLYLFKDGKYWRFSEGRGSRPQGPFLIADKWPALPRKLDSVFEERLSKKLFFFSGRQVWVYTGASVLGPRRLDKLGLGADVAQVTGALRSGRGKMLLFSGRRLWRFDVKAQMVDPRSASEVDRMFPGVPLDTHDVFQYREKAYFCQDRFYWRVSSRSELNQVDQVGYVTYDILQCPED

Row | Structure (SMILES) | IC50 (MMP-2 (gelatinase A)) [nM] | IC50 (MMP-9 (gelatinase B)) [nM]
1 | CNC(=O)[C@@H](NC(=O)[C@H](CCc1ccc2cccccc1-2)CC(=O)NO)C(C)(C)C [Compound 34, N-[(2R)-2-(2'-Hydroxyamino-2'-oxo-ethyl)-4-(azulene-1-yl)-butyloyl]-L-tert-leucine N-Methylamide] | 760 | 52
2 | CNC(=O)[C@H](Cc1ccccc1)NC(=O)[C@H](CCCc1ccc2cccccc1-2)CC(=O)NO [Compound 35, N-[(2R)-2-(2'-Hydroxyamino-2'-oxo-ethyl)-5-(azulene-1-yl)-pentanoyl]-L-phenylalanine N-Methylamide] | 1300 | 2500
3 | CCOc1ccc(C[C@H](NC(=O)[C@H](CCc2ccc3cccccc2-3)CC(=O)NO)C(=O)NC)cc1 [Compound 36, (2S)-2-[(2R)-2-(2'-Hydroxyamino-2'-oxo-ethyl)-4-(azulene-1-yl)butyloyl]amino-3-(4-ethoxy)phenylpropanoylmethylamide] | 180 | 24
4 | CNC(=O)[C@H](Cc1ccccc1)NC(=O)[C@H](CCCCc1ccc2cccccc1-2)CC(=O)NO [Compound 37, N-[(2R)-2-(2'-Hydroxyamino-2'-oxo-ethyl)-6-(azulene-1-yl)-hexanoyl]-L-phenylalanine N-Methylamide] | 2700 | 2900
5 | CNC(=O)[C@H](Cc1ccccc1)NC(=O)[C@H](CCOc1ccc(OC)cc1)CC(=O)NO [Compound 38, N-[(2R)-2-(2'-Hydroxyamino-2'-oxo-ethyl)-4-[(4-methoxyphenyl)oxy]butyloyl]-L-phenylalanine N-Methylamide] | 13 | 2.3
6 | CCOc1ccc(OCC[C@H](CC(=O)NO)C(=O)N[C@@H](Cc2ccccc2)C(=O)NC)cc1 [Compound 39, N-[(2R)-2-(2'-Hydroxyamino-2'-oxo-ethyl)-4-[(4-ethoxy-phenyl)oxy]butyloyl]-L-phenylalanine N-Methylamide] | 8.8 | 1.4
7 | COc1ccc(OCCC[C@H](CC(=O)NO)C(=O)N[C@@H](Cc2ccccc2)C(=O)NC(C)(C)C)cc1 [Compound 41, N-[(2R)-2-(2'-Hydroxyamino-2'-oxo-ethyl)-5-[(4-methoxyphenyl)oxy]pentanoyl]-L-phenylalanine N-tert-Butylamide] | 3.1 | 0.13
8 | CCOc1ccc(OCCC[C@H](CC(=O)NO)C(=O)N[C@@H](Cc2ccccc2)C(=O)NC)cc1 [Compound 43, N-[(2R)-2-(2'-Hydroxyamino-2'-oxo-ethyl)-5-[(4-ethoxy-phenyl)oxy]pentanoyl]-L-phenylalanine N-Methylamide] | 0.97 | 0.14
9 | CNC(=O)[C@H](Cc1ccccc1)NC(=O)[C@H](CCCCOc1ccc(OC)cc1)CC(=O)NO [Compound 44, N-[(2R)-2-(2'-Hydroxyamino-2'-oxo-ethyl)-6-[(4-methoxyphenyl)oxy]hexanoyl]-L-phenylalanine N-Methylamide] | 1.3 | 0.41
10 | CCOc1ccc(OCCCC[C@H](CC(=O)NO)C(=O)N[C@@H](Cc2ccccc2)C(=O)NC)cc1 [Compound 45, N-[(2R)-2-(2'-Hydroxyamino-2'-oxo-ethyl)-6-[(4-ethoxy-phenyl)oxy]hexanoyl]-L-phenylalanine N-Methylamide] | 4 | 0.72
11 | C=CCOc1ccc(OCCCC[C@H](CC(=O)NO)C(=O)N[C@@H](Cc2ccccc2)C(=O)NC)cc1 [Compound 46, N-[(2R)-2-(2'-Hydroxyamino-2'-oxo-ethyl)-6-[(4-allyloxy-phenyl)oxy]hexanoyl]-L-phenylalanine N-Methylamide] | 250 | 160
12 | CNC(=O)[C@@H](NC(=O)[C@H](CCCOc1ccc(OC)cc1)CC(=O)NO)C(C)(C)C [Compound 54, N-[(2R)-2-(2'-Hydroxyamino-2'-oxo-ethyl)-5-[(4-methoxyphenyl)oxy]-pentanoyl]-L-tert-leucine N-Methylamide] | 5.6 | 0.11
13 | COc1ccc(OCCC[C@H](CC(=O)NO)C(=O)N[C@H](C(=O)NC(C)(C)C)C(C)(C)C)cc1 [Compound 55, N-[(2R)-2-(2'-Hydroxyamino-2'-oxo-ethyl)-5-[(4-methoxyphenyl)oxy]-pentanoyl]-L-tert-leucine N-tert-Butylamide] | 21 | 0.23
14 | CNC(=O)[C@@H]1Cc2ccccc2CN1C(=O)[C@H](CCCOc1ccc(OC)cc1)CC(=O)NO [Compound 57, N-[(2R)-2-(2'-Hydroxyamino-2'-oxo-ethyl)-5-[(4-methoxyphenyl)oxy]pentanoyl]-L-tetrahydroisoquinoline N-Methylamide] | 37 | 23

Further lines, results first:

Row | IC50 (MMP-2 (gelatinase A)) [nM] | IC50 (MMP-9 (gelatinase B)) [nM] | Structure (SMILES)
15 | 1 | 0.18 | CNC(=O)[C@H](Cc1ccccc1)NC(=O)[C@H](CCCOc1ccc(OC)cc1)CC(=O)NO [Compound 40, N-[(2R)-2-(2'-Hydroxyamino-2'-oxo-ethyl)-5-[(4-methoxyphenyl)oxy]pentanoyl]-L-phenylalanine N-Methylamide]
16 | 0.36 | 0.051 | COc1ccc(OCCC[C@H](CC(=O)NO)C(=O)N[C@@H](Cc2ccccc2)C(=O)NCCS(N)(=O)=O)cc1 [Compound 42, 2-[N-[(2R)-2-(2'-Hydroxyamino-2'-oxo-ethyl)-5-[(4-methoxyphenyl)oxy]pentanoyl]-L-phenylalanyl]amino-ethanesulfonamide]
17 | 11 | 1.2 | CNC(=O)[C@H](Cc1ccc(OC)cc1)NC(=O)[C@H](CCOc1ccc(OC)cc1)CC(=O)NO [Compound 47, (2S)-2-[(2R)-2-(2'-Hydroxyamino-2'-oxo-ethyl)-4-[(4-methoxyphenyl)oxy]-butyloyl]amino-3-(4-methoxy)phenylpropanoylmethylamide]
18 | 9 | 0.15 | CNC(=O)[C@H](Cc1ccc(OC)cc1)NC(=O)[C@H](CCCOc1ccc(OC)cc1)CC(=O)NO [Compound 48, (2S)-2-[(2R)-2-(2'-Hydroxyamino-2'-oxo-ethyl)-5-[(4-methoxyphenyl)oxy]-pentanoyl]amino-3-(4-methoxy)phenyl-propanoylmethylamide]
19 | 26 | 0.42 | COc1ccc(C[C@H](NC(=O)[C@H](CCCOc2ccc(OC)cc2)CC(=O)NO)C(=O)NC(C)(C)C)cc1 [Compound 49, (2S)-2-[(2R)-2-(2'-Hydroxyamino-2'-oxo-ethyl)-5-[(4-methoxyphenyl)oxy]-pentanoyl]amino-3-(4-methoxy)phenyl-propanoyl-tert-butylamide]
20 | 0.45 | 0.052 | COc1ccc(C[C@H](NC(=O)[C@H](CCCOc2ccc(OC)cc2)CC(=O)NO)C(=O)NCCS(N)(=O)=O)cc1 [Compound 50, 2-[(2S)-2-[(2R)-2-(2'-Hydroxyamino-2'-oxo-ethyl)-5-[(4-methoxyphenyl)oxy]-pentanoyl]amino-3-(4-methoxy)phenylpropanoyl]amino-ethanesulfonamide]
21 | 2.5 | 0.28 | CNC(=O)[C@H](Cc1ccc(OC)cc1)NC(=O)[C@H](CCCCOc1ccc(OC)cc1)CC(=O)NO [Compound 51, (2S)-2-[(2R)-2-(2'-Hydroxyamino-2'-oxo-ethyl)-6-[(4-methoxyphenyl)oxy]-hexanoyl]amino-3-(4-methoxy)phenylpropanoylmethylamide]
22 | 1 | 0.12 | CCOc1ccc(C[C@H](NC(=O)[C@H](CCCOc2ccc(OC)cc2)CC(=O)NO)C(=O)NC)cc1 [Compound 52, (2S)-2-[(2R)-2-(2'-Hydroxyamino-2'-oxo-ethyl)-5-[(4-methoxyphenyl)oxy]-pentanoyl]amino-3-(4-ethoxy)phenylpropanoylmethylamide]
23 | 3.2 | 0.32 | CCOc1ccc(C[C@H](NC(=O)[C@H](CCCCOc2ccc(OC)cc2)CC(=O)NO)C(=O)NC)cc1 [Compound 53, (2S)-2-[(2R)-2-(2'-Hydroxyamino-2'-oxo-ethyl)-6-[(4-methoxyphenyl)oxy]-hexanoyl]amino-3-(4-ethoxy)phenylpropanoylmethylamide]
24 | 2.3 | 0.26 | COc1ccc(OCCC[C@H](CC(=O)NO)C(=O)N[C@H](C(=O)NCCS(N)(=O)=O)C(C)(C)C)cc1 [Compound 56, 2-[N-[(2R)-2-(2'-Hydroxyamino-2'-oxo-ethyl)-5-[(4-methoxyphenyl)oxy]pentanoyl]-L-tert-leucyl]amino-ethanesulfonamide]
